# Values of other authors as cited in patent US20230165893A1, “TREATMENT OF VIRAL INFECTIONS” (SULFAGENIX, INC., priority 2020, published 2023).
# Conditions: pure elemental sulfur, stated as a contrast, no source given
structure (smiles),measurement,value
"S1SSSSSSS1 [alpha-elemental sulfur, elemental alpha sulfur]",solubility in carbon disulfide (in words),completely soluble
